# Test results: ChEMBL document CHEMBL1122344, “Pyridazinones. 2. Synthesis and antisecretory and antiulcer activities of thiourea and 2-cyanoguanidine derivatives” (1983)
# Legend:
# Assay type in all cases: functional
# [1] = system: Rattus norvegicus; assay: Gastric antisecretory activity at the dose of 100 mg/kg in pylorus lygated rats
# [2] = species on record: Rattus norvegicus; assay: Dose required to inhibit ulcer induced by stress in rats
# [3] = species on record: Rattus norvegicus; assay: Dose required to inhibit gastric secretory activity in pylorus lygated rats; conditions: Stomach
compound,measurement,setting,value
C/N=C(\S)N(C)CCCCn1nc(-c2ccccc2)ccc1=O,inhibition in vivo at 100 mg/kg,[1],17.5%
C/N=C(\S)NCCCCn1nc(-c2ccccc2)ccc1=O,ED50,[2],17.3 mg/kg
same,inhibition in vivo at 100 mg/kg,[1],87.1%
same,ED50,[3],28.9 mg/kg
CC/N=C(/NC#N)NCCCCn1nc(-c2ccccc2)cc(C)c1=O,inhibition in vivo at 100 mg/kg,[1],42.5%
same,ED50,[3],> 100 mg/kg
C/N=C(/NC#N)NCCCn1nc(-c2ccccc2)c(C)cc1=O,inhibition in vivo at 100 mg/kg,[1],17.2%
N#CNC(=N)NCCCCCn1nc(-c2ccccc2)ccc1=O,inhibition in vivo at 100 mg/kg,[1],31%
same,ED50,[3],> 100 mg/kg
CC/N=C(/NC#N)NCCCCCn1nc(-c2ccccc2)ccc1=O,ED50,[2],60.3 mg/kg
same,inhibition in vivo at 100 mg/kg,[1],48.2%
same,ED50,[3],100 mg/kg
CCC/N=C(/NC#N)NCCCCn1nc(-c2ccccc2)ccc1=O,inhibition in vivo at 100 mg/kg,[1],26.3%
same,ED50,[3],> 100 mg/kg
C/N=C(/NC#N)NCCCCn1nc(-c2ccc(Cl)cc2)ccc1=O,inhibition in vivo at 100 mg/kg,[1],51%
same,ED50,[3],100 mg/kg
C/N=C(\S)NCCCCCn1nc(-c2ccccc2)ccc1=O,ED50,[2],42.1 mg/kg
same,inhibition in vivo at 100 mg/kg,[1],68.9%
same,ED50,[3],35.3 mg/kg
CN/C(=N/CCCCn1nc(-c2ccc(OC)cc2)ccc1=O)NC#N,inhibition in vivo at 100 mg/kg,[1],48.5%
same,ED50,[3],> 100 mg/kg
CNC(=S)CCCCCn1nc(-c2ccccc2)ccc1=O,ED50,[2],18.3 mg/kg
same,inhibition in vivo at 100 mg/kg,[1],90.3%
same,ED50,[3],23.8 mg/kg
C/N=C(\S)NCCCCCCn1nc(C)ccc1=O,inhibition in vivo at 100 mg/kg,[1],-12.5%
CC/N=C(/NC#N)NCCCCCCn1nc(-c2ccccc2)ccc1=O,ED50,[2],> 100 mg/kg
same,inhibition in vivo at 100 mg/kg,[1],29.1%
same,ED50,[3],> 100 mg/kg
C/N=C(/NC#N)NCCCn1nc(-c2ccccc2)cc(C)c1=O,inhibition in vivo at 100 mg/kg,[1],42.8%
same,ED50,[3],> 100 mg/kg
O=c1ccc(-c2ccccc2)nn1CCCCNC(=S)Nc1cccc2ccccc12,inhibition in vivo at 100 mg/kg,[1],42.3%
same,ED50,[3],> 100 mg/kg
CCC/N=C(/NC#N)NCCCn1nc(-c2ccccc2)ccc1=O,inhibition in vivo at 100 mg/kg,[1],52.9%
same,ED50,[3],100 mg/kg
C/N=C(/NC#N)NCCCCn1nc(-c2ccccc2)cc(C)c1=O,inhibition in vivo at 100 mg/kg,[1],68.6%
same,ED50,[3],60.8 mg/kg
CC(C)C/N=C(\S)NCCCCn1nc(-c2ccccc2)ccc1=O,inhibition in vivo at 100 mg/kg,[1],35.8%
same,ED50,[3],> 100 mg/kg
O=c1ccc(-c2ccccc2)nn1CCCC/N=C(\S)Nc1cccc(F)c1,inhibition in vivo at 100 mg/kg,[1],30.4%
same,ED50,[3],> 100 mg/kg
C/N=C(/NC#N)NCCCCn1nc(N2CCCC2)ccc1=O,inhibition in vivo at 100 mg/kg,[1],-1%
C/N=C(/NC#N)NCCCCn1nc(-c2ccccc2)c(C)cc1=O,inhibition in vivo at 100 mg/kg,[1],46.4%
same,ED50,[3],> 100 mg/kg
O=c1ccc(-c2ccccc2)nn1CCCNC(=S)Nc1ccccc1,inhibition in vivo at 100 mg/kg,[1],12.1%
CC/N=C(/NC#N)NCCCCn1nc(-c2ccccc2)ccc1=O,ED50,[2],60.7 mg/kg
same,inhibition in vivo at 100 mg/kg,[1],58.8%
same,ED50,[3],92 mg/kg
O=c1ccc(-c2ccccc2)nn1CCCCNC(=S)Nc1ccc(Cl)cc1,inhibition in vivo at 100 mg/kg,[1],43.2%
same,ED50,[3],> 100 mg/kg
CCC/N=C(/NC#N)NCCCCCn1nc(-c2ccccc2)ccc1=O,inhibition in vivo at 100 mg/kg,[1],27.5%
same,ED50,[3],> 100 mg/kg
C/N=C(/NC#N)NCCCCCn1nc(-c2ccccc2)cc(C)c1=O,inhibition in vivo at 100 mg/kg,[1],33.8%
same,ED50,[3],> 100 mg/kg
CC(C)(C)/N=C(\S)NCCCCn1nc(-c2ccccc2)ccc1=O,inhibition in vivo at 100 mg/kg,[1],33.6%
same,ED50,[3],> 100 mg/kg
C/N=C(/NC#N)N(C)CCCCn1nc(-c2ccccc2)ccc1=O,inhibition in vivo at 100 mg/kg,[1],27%
same,ED50,[3],> 100 mg/kg
C/N=C(/NC#N)NCCCCn1nc(N(C)C)ccc1=O,inhibition in vivo at 100 mg/kg,[1],26.3%
same,ED50,[3],> 100 mg/kg
CC/N=C(/NC#N)NCCCn1nc(-c2ccccc2)c(C)cc1=O,inhibition in vivo at 100 mg/kg,[1],0.2%
N#CNC(=N)NCCCn1nc(-c2ccccc2)ccc1=O,inhibition in vivo at 100 mg/kg,[1],33.3%
same,ED50,[3],> 100 mg/kg
CC/N=C(\S)NCCCn1nc(-c2ccccc2)ccc1=O,ED50,[2],88.2 mg/kg
same,inhibition in vivo at 100 mg/kg,[1],39%
same,ED50,[3],> 100 mg/kg
CC/N=C(\S)NCCCCn1nc(-c2ccccc2)ccc1=O,ED50,[2],19.8 mg/kg
same,inhibition in vivo at 100 mg/kg,[1],67.7%
same,ED50,[3],37.2 mg/kg
CC/N=C(/NC#N)NCCCn1nc(C)ccc1=O,inhibition in vivo at 100 mg/kg,[1],34.5%
same,ED50,[3],> 100 mg/kg
O=c1ccc(-c2ccccc2)nn1CCCCNC(=S)NCc1ccccc1,inhibition in vivo at 100 mg/kg,[1],5.4%
CN/C(=N\CCSCc1nc[nH]c1C)NC#N [CIMETIDINE],ED50,[2],43.2 mg/kg
same,inhibition in vivo at 100 mg/kg,[1],80.6%
C/N=C(\S)NCCn1nc(-c2ccccc2)ccc1=O,ED50,[2],> 100 mg/kg
same,inhibition in vivo at 100 mg/kg,[1],23.3%
C/N=C(\S)NCCCn1nc(-c2ccccc2)ccc1=O,ED50,[2],58 mg/kg
same,inhibition in vivo at 100 mg/kg,[1],38.9%
same,ED50,[3],> 100 mg/kg
C#CCN/C(=N/CCCCn1nc(-c2ccccc2)ccc1=O)NC#N,inhibition in vivo at 100 mg/kg,[1],-12.9%
N#CNC(=N)NCCCCCCn1nc(-c2ccccc2)ccc1=O,inhibition in vivo at 100 mg/kg,[1],20.5%
C/N=C(\NC#N)NCCCCn1nc(-c2ccccc2)ccc1=O,inhibition in vivo at 100 mg/kg,[1],79%
CN(C)/C(=N/CCCCCn1nc(-c2ccccc2)ccc1=O)NC#N,ED50,[2],53.1 mg/kg
same,inhibition in vivo at 100 mg/kg,[1],63.9%
same,ED50,[3],81.5 mg/kg
C/N=C(/NC#N)NCCCCn1nc(N2CCN(C)CC2)ccc1=O,inhibition in vivo at 100 mg/kg,[1],7.9%
C/N=C(/NC#N)NCCn1nc(-c2ccccc2)ccc1=O,inhibition in vivo at 100 mg/kg,[1],-3.5%
N/C(S)=N/CCCCn1nc(-c2ccccc2)ccc1=O,inhibition in vivo at 100 mg/kg,[1],72%
same,ED50,[3],36.3 mg/kg
CC/N=C(/NC#N)NCCCn1nc(-c2ccccc2)cc(C)c1=O,inhibition in vivo at 100 mg/kg,[1],23.5%
C/N=C(/NC#N)NCCCCn1nc(Nc2ccccc2)ccc1=O,inhibition in vivo at 100 mg/kg,[1],24.4%
same,ED50,[3],> 100 mg/kg
C/N=C(\S)NCCCCCn1nc(C)ccc1=O,inhibition in vivo at 100 mg/kg,[1],3.2%
CCC/N=C(/NC#N)NCCCn1nc(C)ccc1=O,inhibition in vivo at 100 mg/kg,[1],17.5%
O=c1ccc(-c2ccccc2)nn1CCNC(=S)NC1CCCCC1,inhibition in vivo at 100 mg/kg,[1],12.3%
CC/N=C(/NC#N)NCCCCn1nc(-c2ccccc2)c(C)cc1=O,inhibition in vivo at 100 mg/kg,[1],38.8%
same,ED50,[3],> 100 mg/kg
O=c1ccc(-c2ccccc2)nn1CCCC/N=C(\S)Nc1ccc(F)cc1,inhibition in vivo at 100 mg/kg,[1],45.6%
same,ED50,[3],> 100 mg/kg
CN(C)/C(=N/CCCCn1nc(-c2ccccc2)ccc1=O)NC#N,ED50,[2],52.9 mg/kg
same,inhibition in vivo at 100 mg/kg,[1],80.7%
same,ED50,[3],30.3 mg/kg
CC/N=C(/NC#N)NCCCCn1nc(C)ccc1=O,inhibition in vivo at 100 mg/kg,[1],13.5%
CN(C)/C(=N/CCn1nc(-c2ccccc2)ccc1=O)NC#N,ED50,[2],> 100 mg/kg
same,inhibition in vivo at 100 mg/kg,[1],63.9%
same,ED50,[3],62.8 mg/kg
C/N=C(/NC#N)NCCCCCn1nc(-c2ccccc2)ccc1=O,ED50,[2],76.2 mg/kg
same,inhibition in vivo at 100 mg/kg,[1],47.6%
same,ED50,[3],100 mg/kg
C/N=C(/NC#N)NCCCn1nc(C)ccc1=O,inhibition in vivo at 100 mg/kg,[1],6.8%
C/N=C(\S)NCCCCn1nc(C)ccc1=O,inhibition in vivo at 100 mg/kg,[1],44.5%
same,ED50,[3],> 100 mg/kg
O=c1ccc(-c2ccccc2)nn1CCNC(=S)Nc1ccccc1,inhibition in vivo at 100 mg/kg,[1],-3.4%
O=c1ccc(-c2ccccc2)nn1CCCCNC(=S)Nc1ccccc1,ED50,[2],> 100 mg/kg
same,inhibition in vivo at 100 mg/kg,[1],38.4%
same,ED50,[3],> 100 mg/kg
C/N=C(/NC#N)NCCCCn1nc(-c2ccc(C)cc2)ccc1=O,inhibition in vivo at 100 mg/kg,[1],45.7%
same,ED50,[3],> 100 mg/kg
C/N=C(/NC#N)NCCCCCn1nc(-c2ccccc2)c(C)cc1=O,inhibition in vivo at 100 mg/kg,[1],28.5%
same,ED50,[3],> 100 mg/kg
CN(C)/C(=N/CCCCCCn1nc(-c2ccccc2)ccc1=O)NC#N,ED50,[2],92.5 mg/kg
same,inhibition in vivo at 100 mg/kg,[1],58.4%
same,ED50,[3],93.1 mg/kg
CC/N=C(\S)NCCn1nc(-c2ccccc2)ccc1=O,inhibition in vivo at 100 mg/kg,[1],8.1%
O=c1ccc(-c2ccccc2)nn1CCCCNC(=S)NC1CCCCC1,inhibition in vivo at 100 mg/kg,[1],18.1%
O=c1ccc(-c2ccccc2)nn1CCCC/N=C(\S)Nc1ccc(S(=O)(=O)O)cc1,inhibition in vivo at 100 mg/kg,[1],25.1%
N#CNC(=N)NCCn1nc(-c2ccccc2)ccc1=O,inhibition in vivo at 100 mg/kg,[1],18.5%
CC/N=C(/NC#N)NCCCn1nc(-c2ccccc2)ccc1=O,ED50,[2],88.5 mg/kg
same,inhibition in vivo at 100 mg/kg,[1],62.9%
same,ED50,[3],78.3 mg/kg
N#CN/C(=N\CCCCn1nc(-c2ccccc2)ccc1=O)NCCc1ccccc1,inhibition in vivo at 100 mg/kg,[1],0.3%
C/N=C(/NC#N)NCCCn1nc(-c2ccccc2)ccc1=O,ED50,[2],78.1 mg/kg
same,inhibition in vivo at 100 mg/kg,[1],40.5%
same,ED50,[3],> 100 mg/kg
N#CNC(=N)NCCCCn1nc(-c2ccccc2)ccc1=O,ED50,[2],59.3 mg/kg
same,inhibition in vivo at 100 mg/kg,[1],61.2%
same,ED50,[3],77.2 mg/kg
C/N=C(\S)NCCCn1nc(C)ccc1=O,inhibition in vivo at 100 mg/kg,[1],-8.2%
C/N=C(/NC#N)NCCCCn1nc(N2CCOCC2)ccc1=O,inhibition in vivo at 100 mg/kg,[1],-10.2%
C/N=C(/NC#N)NCCCCCCn1nc(-c2ccccc2)ccc1=O,ED50,[2],> 100 mg/kg
same,inhibition in vivo at 100 mg/kg,[1],31.7%
same,ED50,[3],> 100 mg/kg
C#CCN/C(=N/CCCn1nc(-c2ccccc2)ccc1=O)NC#N,inhibition in vivo at 100 mg/kg,[1],-11.8%
C/N=C(/NC#N)NCCCCn1nc(C)ccc1=O,inhibition in vivo at 100 mg/kg,[1],23.5%
same,ED50,[3],> 100 mg/kg
C/N=C(/NC#N)NCCCCCn1nc(C)ccc1=O,inhibition in vivo at 100 mg/kg,[1],14.9%
C/N=C(\S)NCCn1nc(C)ccc1=O,inhibition in vivo at 100 mg/kg,[1],6%
C/N=C(\S)NCCCCCCn1nc(-c2ccccc2)ccc1=O,inhibition in vivo at 100 mg/kg,[1],22.2%
O=c1ccc(-c2ccccc2)nn1CCCNC(=S)NC1CCCCC1,inhibition in vivo at 100 mg/kg,[1],23.6%
CC/N=C(\S)NCCCCCn1nc(-c2ccccc2)ccc1=O,inhibition in vivo at 100 mg/kg,[1],66.4%
same,ED50,[3],51.8 mg/kg
CN(C)/C(=N/CCCn1nc(-c2ccccc2)ccc1=O)NC#N,ED50,[2],93.1 mg/kg
same,inhibition in vivo at 100 mg/kg,[1],72.2%
same,ED50,[3],53 mg/kg
CC/N=C(\S)NCCCCCCn1nc(-c2ccccc2)ccc1=O,inhibition in vivo at 100 mg/kg,[1],-5.6%
C=CCNC(=S)NCCCCn1nc(-c2ccccc2)ccc1=O,ED50,[2],78.6 mg/kg
same,inhibition in vivo at 100 mg/kg,[1],27.1%
same,ED50,[3],> 100 mg/kg
